Values of other authors as cited in patent US5817671A, “5-HT1F agonists” (Eli Lilly and Company, priority 1997, dated 1998).

Experiments:
[1] = system: neurogenic inflammation, peptide extravasation; conditions: Moskowitz, Neurology 43(suppl. 3), S16-S20 (1993)
[2] = in vivo
[3] = in vivo; remark: listed apart in the source
[4] = treatment of migraine
[5] = system: exploratory behavior of arthritic rats; conditions: arthritic animals; Larsen and Arnt (1985)
5-HT1F receptor = target: T1, 5-HT1F receptor (Homo sapiens, UniProt P30939); conditions: reported by Weinshank et al., WO93/14201
T1 sequence (P30939 1-366): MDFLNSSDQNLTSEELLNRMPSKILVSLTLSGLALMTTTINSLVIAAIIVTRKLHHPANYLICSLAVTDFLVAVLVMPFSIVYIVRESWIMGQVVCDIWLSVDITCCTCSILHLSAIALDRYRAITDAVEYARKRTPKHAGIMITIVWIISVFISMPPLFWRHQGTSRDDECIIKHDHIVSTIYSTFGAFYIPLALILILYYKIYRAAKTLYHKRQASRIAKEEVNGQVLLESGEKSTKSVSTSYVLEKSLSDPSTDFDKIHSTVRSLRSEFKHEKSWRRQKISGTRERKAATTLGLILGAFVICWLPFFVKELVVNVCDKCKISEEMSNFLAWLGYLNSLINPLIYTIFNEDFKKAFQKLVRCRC

## CNS(=O)(=O)Cc1ccc2[nH]cc(CCN(C)C)c2c1 [Sumatriptan]
[1]
  block of neurogenic inflammation (in words): neurogenic inflammation is blocked
[2]
  bioavailability (in words): low bioavailability
[3]
  duration of action (in words): relatively short duration of action
[4]
  undesirable side effects (in words): undesirable side effects, particularly vasoconstriction

## CN(C)CCCC1(c2ccc(F)cc2)OCc2cc(C#N)ccc21 (stereo not drawn) [citalopram]
[5]
  effect on exploratory behavior (in words): improve exploratory behavior

## NCCc1c[nH]c2ccc(O)cc12 [serotonin]
5-HT1F receptor
  inhibition of forskolin stimulated cAMP production (in words): inhibit forskolin stimulated cAMP production
